Results as given in article PMC12156033, “N-Alkylamino Stilbene Compounds as Amyloid β Inhibitors for Alzheimer’s Disease Research” (Molecules, 2025).
“Also recorded” adds a separate entry of the source.

Columns and labels:
Aβ42 fibrils = molecular target: T1, Aβ42 fibrils (Homo sapiens, UniProt P05067); experiment: Fluorescence spectra of compounds with Aβ42 fibrils; assay type: binding; details: excitation 380 nm; compound 5.0 µM in PBS with Aβ fibrils
T1 construct: commercial Aβ42 peptide (AnaSpec or GL Biochem); purchased AnaSpec or GL Biochem
T1 sequence (P05067 672-713 limits assumed): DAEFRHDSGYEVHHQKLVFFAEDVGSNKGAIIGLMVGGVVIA
Description: (§1) All fluorescence measurements were performed using a SpectraMax M2e plate reader (Molecular Devices, San Jose, CA, USA). The fluorescence spectra of the compounds’ solution (100 μL PBS, 5.0 µM) were recorded with excitation at 380 nm and an emission wavelength from 400 to 680 nm. To PBS solutions (100 μL) of the compounds (5.0 µM), various Aβ42 species were added, with final concentrations of 5.0 µM and 25.0 µM, and their fluorescence spectra (λmax of emission) were determined as described above.
(§2) Aβ42 powder was prepared by dissolving commercial Aβ42 peptide (AnaSpec or GL Biochem) in ammonium hydroxide solution (1%, v/v). The solution was then aliquoted out and lyophilized overnight. The resulting aliquoted powder was stored at −80 °C. Aβ42 monomers were generated by dissolving Aβ42 powder in 1,1,1,3,3,3-hexafluoro-2-propanol (HFIP, 1 mM) and incubating for 1 h at room temperature. The solution was then evaporated overnight and dried by vacuum centrifuge to result in monomeric films. Aβ42 fibrils were generated by dissolving the monomeric Aβ42 films in DMSO, diluting into the appropriate buffer, and incubating for 24 h at 37 °C with continuous agitation (final DMSO concentration was <2%). For the preparation of Aβ42 oligomers, the peptides were suspended in PBS buffer and incubated overnight at 4 °C.

[1] = Log D measurement octanol/PBS; assay type: physicochemical; details: octanol / PBS pH 7.4, 10 μM, triplicate, ± SD
Description: The determination of log D values for N-alkylamino multifunctional compounds was performed using a slightly modified reported procedure. The compounds (final concentration 10 μM) were added to the premix suspension containing 0.5 mL octanol and 0.5 mL octanol-saturated PBS buffer (pH = 7.4). The resulting mixture was stirred vigorously for 5 min and centrifuged at 2000 rpm for 5 min. The octanol layer was separated from the PBS layer, and the fluorescence spectrum was recorded. The remaining 0.5 mL PBS layer was partitioned with 0.5 mL PBS-saturated octanol, and the octanol layer was separated after 5 min of vigorous shaking and centrifuging. The fluorescence spectrum of the octanol layer was recorded. The log D value was calculated based on the fluorescence intensity ratio for the two octanol layers. Each experiment was completed in triplicate, and the error represents the standard deviation for the average log D values.

[2] = molecular target: T2, soluble Aβ42 aggregates (sAβ) (Homo sapiens, UniProt P05067); experiment: Fluorescence spectra of compounds with soluble Aβ42 aggregates; assay type: binding; details: excitation 380 nm; compound 5.0 µM in PBS with soluble Aβ aggregates
T2 construct: commercial Aβ42 peptide (AnaSpec or GL Biochem); purchased AnaSpec or GL Biochem
T2 sequence (P05067 672-713 limits assumed): as above
Description: as §1, §2

[3] = molecular target: T3, amyloid plaques in 5xFAD mice brain sections (Homo sapiens, UniProt P05067); experiment: Histological staining of 5xFAD mice brain sections, colocalization with HJ3.4 antibody; assay type: binding, mouse; details: 11-month-old 5xFAD mice brain sections, compound 25 μM, HJ3.4 1 μg/mL
T3 construct: the amyloid beta (Aβ) peptide that makes up amyloid plaques; tissue Jackson Laboratories; host or cells: brain sections from 11-month-old 5xFAD transgenic mice (Tg6799 line)
T3 sequence (P05067 672-713 limits assumed): as above
Description: To further investigate the affinity of the developed compounds toward various Aβ aggregates in situ, the intrinsic fluorescence properties of the compounds were employed for their ability to stain insoluble amyloid plaques. For these studies, brain sections from 11-month-old 5xFAD transgenic mice, which rapidly develop severe amyloid pathology, were co-stained with stilbenes and HJ3.4 antibody. HJ3.4 is an anti-amyloid antibody that binds to the N-terminal region of the Aβ peptide, thereby targeting both soluble and insoluble amyloid species. To evaluate the Aβ binding specificity of the compounds in vitro, brain sections from 11-month-old 5xFAD mice were washed with PBS (3 × 5 min) and blocked with bovine serum albumin (2% w/v BSA in PBS, pH 7.4, 10 min). Then, the sections were incubated with 25 μM of multifunctional compounds and sequentially stained with HJ3.4 antibody (Professor David Holtzman, 1 μg/mL) for 30 min. The brain sections were treated with 2% w/v BSA-PBS again for 4 min to remove any compounds or antibodies that were non-specifically binding to the tissue. Finally, the sections were washed with PBS (3 × 2 min) and DI water (2 min) and mounted with non-fluorescent mounting media (Vectashield). Colocalization analysis and determination of Pearson’s correlation coefficient were performed with the imaging software Fiji (ImageJ 1.52p). Mouse brains were harvested in compliance with the Institutional Animal Care and Use Committee of the University of Illinois at Urbana-Champaign (IACUC protocol #22094).

[4] = Fluorescence spectra of the compounds alone in PBS; assay type: physicochemical; details: excitation 380 nm; compound 5.0 µM in PBS
Description: as §1

[5] = tested on: Cu-Aβ42 cytotoxicity on N2a cells; experiment: N2a cell rescue from Cu-induced Aβ42 cytotoxicity (Alamar blue); assay type: cell-based, mouse; details: [Aβ42] = [CuCl2] = 20 μM, compound 5 μM
Description: Mouse neuroblastoma Neuro2A (N2A) cell lines were purchased from the American Type Culture Collection (ATCC), Manassas, VA, USA. Cells were grown in DMEM/10% FBS, which is the regular growth media for N2A cells, in a humidified atmosphere with 5% CO2 at 37 °C. N2A cells were seeded in a clear 96-well plate (2.5 × 10^4/well) with DMEM/10% FBS. The media was changed to DMEM/N-2 media 24 h later. After 1 h, the treatment reagents were added. Owing to the poor solubility of compounds in the media, the final amount of DMSO used was 1% (v/v). After an additional incubation of 40 h, Alamar Blue solution was added to each well, and the cells were incubated for 90 min at 37 °C. Fluorescence intensity was measured at 590 nm (excitation wavelength = 560 nm).
The Alamar Blue assay was carried out as described, with the following treatment reagents: 20 μM Aβ42 species, 5 μM compounds, and 20 μM CuCl2.

Aβ40 peptide = molecular target: T4, Aβ40 peptide (Homo sapiens, UniProt P05067); experiment: Aβ40 aggregation inhibition assay monitored by ThT fluorescence; assay type: biochemical; details: 25 μM Aβ40, 5 μM ThT, 5 μM compound, 37 °C, 48 h
T4 construct: a peptide solution of 25 μM Aβ40 monomers (AnaSpec, Fremont, CA, USA) was prepared; purchased AnaSpec
T4 sequence (P05067 672-711 limits assumed): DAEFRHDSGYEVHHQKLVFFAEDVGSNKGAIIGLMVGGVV
Description: To investigate the effect of these compounds on amyloid aggregation, inhibition of aggregation assays were performed using the Aβ40 peptide. Aβ40 has been implicated in inducing oxidative stress and is physiologically the most common isoform of the amyloid peptide and is therefore a widely used isoform in amyloid assays. Aβ40 is also known to have slower aggregation kinetics than Aβ42, which is helpful for studying the inhibition of the early aggregation pathway. […] Thus, a lower RFU can be interpreted as inhibiting the fibrillization of amyloids. The rest of the compounds show appreciable inhibition of Aβ aggregation as found in the Supplementary Materials (Figure S2), except for L9, which contains the morpholine EDG and a methoxy group on the EAG (Figure 3). The addition of the more polar oxygen heteroatom may instead favor hydrogen bonding interactions within the aqueous media, thereby solvating the compound and reducing early interactions with soluble aggregates. Lastly, although L2 and L3 show similar amyloid inhibition, the L3 compound lacking the o-methoxy group begins inhibition at an earlier time. […] This procedure was established in a previous publication.

[6] = molecular target: T5, Aβ aggregates (sAβ and Aβ fibrils) (Homo sapiens, UniProt P05067); experiment: Fluorescence turn-on assay with Aβ aggregates; assay type: binding; details: compound 5 μM in PBS pH 7.4
T5 construct: commercial Aβ42 peptide (AnaSpec or GL Biochem); purchased AnaSpec or GL Biochem
T5 sequence (P05067 672-713 limits assumed): as the sequence (P05067 672-713 limits assumed) above
Description: A fluorescence turn-on assay was performed to interrogate the effect of structural differences on the fluorescence enhancement with Aβ aggregates. […] Increases in fluorescence intensity with different aggregates would be ideal for tools used in amyloid-based assays. […] Without the ortho-methoxy group on the EAG, there is greater fluorescence enhancement for Aβ fibrils over sAβ for L3 and L4. […] The larger fluorescence enhancement observed for L6 than L5 indicates the dimethylamine EDG/methoxy EAG pair has a greater TICT. The piperidine-EDG-containing L7 has only slightly higher turn-on with sAβ, which may be attributed to the ortho-methoxy group on the EAG. […] In this case, it appears that the methoxy on the EAG diminishes the overall fluorescence of the compound since L8 has greater baseline fluorescence and turn-on than L7. This is also the case for the morpholine-EDG-containing L9 and L10. The lack of a methoxy group on the L10 EAG, in conjunction with the oxygen heteroatom from the morpholine EDG, electronically favors turn-on with Aβ fibrils to a slight extent. […] Changing the EDG to a methyl piperazine, L11, increases baseline fluorescence and turn-on compared to L9. […] L11 and L12, both containing an N-methyl piperazine EDG, show similar turn-on with sAβ and fibrils, and the o-methoxy EAG of L11 increases overall baseline fluorescence compared to L12. […] The spectra for the remaining compounds can be found in the Supplementary Information (Figure S1). None of the three compounds with the highest fluorescence contained an o-methoxy group on the EAG.
as §1, with “above. […]” for “above.”

Compound	Compound+Fibrils λem (λmax of emission) (Aβ42 fibrils) [nm]	logD [1]	Compound+sAβ λem (λmax of emission) [2] [nm]	Pearson's coefficient (R) of colocalization with AF594-HJ3.4 [3]	Compound λem (λmax of emission) [4] [nm]	effect on Cu-stabilized Aβ42 / Aβ42-induced toxicity [5]	inhibition of Aβ40 aggregation (ThT RFU) (Aβ40 peptide)	fluorescence enhancement / turn-on with Aβ aggregates [6]
CNc1ccc(/C=C/c2ccc(O)c(CN3CCN(C)CCN(C)CC3)c2)cc1 [Compound L3, (E)-2-((4,7-dimethyl-1,4,7-triazonan-1-yl)methyl)-4-(4-(methylamino)styryl)phenol]	430	0.98 ± 0.01	430	0.72	455			
CCN(CC)c1ccc(/C=C/c2cc(CN3CCN(C)CCN(C)CC3)c(O)c(OC)c2)cc1 [Compound L5, (E)-4-(4-(diethylamino)styryl)-2-((4,7-dimethyl-1,4,7-triazonan-1-yl)methyl)-6-methoxyphenol]	435	1.39 ± 0.01	435	0.74	460	rescue cells from Cu-Aβ42 cytotoxicity		
CN1CCN(C)CCN(Cc2cc(/C=C/c3ccc(N(C)C)cc3)ccc2O)CC1 [Compound L4, (E)-2-((4,7-dimethyl-1,4,7-triazonan-1-yl)methyl)-4-(4-(dimethylamino)styryl)phenol]	435	1.44 ± 0.01	435	0.60	455	toxicity was exacerbated	greatest inhibition; also recorded: best inhibition	greatest overall fluorescence enhancements
COc1cc(/C=C/c2ccc(N3CCCCC3)cc2)cc(CN2CCN(C)CCN(C)CC2)c1O [Compound L7, (E)-2-((4,7-dimethyl-1,4,7-triazonan-1-yl)methyl)-6-methoxy-4-(4-(piperidin-1-yl)styryl)phenol]	430	1.35 ± 0.02	430	0.66	460			
CN1CCN(C)CCN(Cc2cc(/C=C/c3ccc(N4CCOCC4)cc3)ccc2O)CC1 [Compound L10, (E)-2-((4,7-dimethyl-1,4,7-triazonan-1-yl)methyl)-4-(4-morpholinostyryl)phenol]	435	1.03 ± 0.01	435	0.74	455	rescue cells from Cu-Aβ42 cytotoxicity		highest fluorescence intensity; also recorded: greatest overall fluorescence enhancements
CCN(CC)c1ccc(/C=C/c2ccc(O)c(CN3CCN(C)CCN(C)CC3)c2)cc1 [Compound L6, (E)-4-(4-(diethylamino)styryl)-2-((4,7-dimethyl-1,4,7-triazonan-1-yl)methyl)phenol]	430	1.37 ± 0.01	430	0.70	455			
COc1cc(/C=C/c2ccc(N(C)C)cc2)cc(CN2CCN(C)CCN(C)CC2)c1O [Compound L1, (E)-2-((4,7-dimethyl-1,4,7-triazonan-1-yl)methyl)-4-(4-(dimethylamino)styryl)-6-methoxyphenol]	455	1.33 ± 0.01	455	0.67	455	rescue cells from Cu-Aβ42 cytotoxicity		
COc1cc(/C=C/c2ccc(N3CCN(C)CC3)cc2)cc(CN2CCN(C)CCN(C)CC2)c1O [Compound L11, (E)-2-((4,7-dimethyl-1,4,7-triazonan-1-yl)methyl)-6-methoxy-4-(4-(4-methylpiperazin-1-yl)styryl)phenol]	450	0.85 ± 0.01	450	0.77	455	inhibit both Cu-stabilized Aβ42- and Aβ42-induced toxicity; also recorded: rescue cells from Cu-Aβ42 cytotoxicity		
